Marks after values point to notes of the source that are not given here.
Key:
bovine ileal explants [1] = assay: ABM accumulation in bovine ileal explants, modulation by R-CNE or IVM; assay type: in vitro ADME, cattle; details: 0.05 μM ABM; for Effect on ABM accumulation in intestinal explants: 3.33 mM R-CNE or 0.5 μM IVM, 15-60 min
Text: Cattle ileum samples were obtained from a local slaughterhouse ([…], Argentina) located 16 km away from the laboratory facilities.

P-gp = system: P-gp; design: method as in PMID 16384552; details: read-out: Concentration that inhibited the activated ATPase activity by 50%; cited from earlier work
sheep intestine = system: sheep intestine; design: method as in PMID 24611483; details: Ussing chambers; cited from earlier work
bovine ileal explants [2] = system: bovine ileal explants
Text: (§1) Data are expressed as mean ± standard deviation (SD). […] Differences were considered statistically significant at p < 0.05.

[3] = R-CNE plasma concentrations after oral administration to lambs; assay type: in vivo; details: Corriedale and Texel crossbreed, sheep, 100 mg/kg oral, four doses every 24 h, after each dose
Description: (§2) All the animals had free access to water. Lambs were assigned to three experimental groups.
R-CNE analysis was performed according the technique described by Tao and Pereira ([23]), with modifications. Aliquots of plasma (0.25 mL) were mixed with acetonitrile, agitated and centrifuged. Supernatants were injected into the HPLC system fitted with a Kromasil C18 column. The mobile phase was water/acetonitrile (40/60) at an isocratic flow of 1.3 mL/min. R-CNE was analyzed using a UV detector (Shimadzu, SPD-10A).
as §1

[4] = Undesirable effects after oral administration in the in vivo assay; details: lambs, R-CNE 100 mg/kg, four oral doses every 24 h
Text: as §2

[5] = system: Haemonchus contortus egg hatch; design: method as in PMID 28807309; details: in vitro; cited from earlier work
[6] = system: Haemonchus spp. eggs and larvae; design: method as in PMID 28807309; details: in vitro; cited from earlier work
[7] = ABM plasma disposition after oral administration to lambs; details: ABM 0.2 mg/kg oral, alone or with R-CNE 4 x 100 mg/kg every 24 h, mean ± SD, n = 8
Text: as §1

[8] = system: resistant gastrointestinal nematodes; assay: Fecal egg count reduction test in naturally infected lambs; assay type: in vivo
Description: as §2
The fecal samples were analyzed to obtain the epg counts. The coprocultures were prepared with 10 g of feces from a pool of each experimental group obtained on days−1 and 14. The nematode genera and species were identified through the third-stage larvae recovered from the coprocultures ([24]). The fecal egg count reduction test (FECRT) was calculated using the Abbott's formula ([25]), with modifications: […]
where T1 and T2 are the arithmetic mean epg counts in the treated group on days 0 and 14, respectively, and C1 and C2 are the arithmetic mean epg counts in the control group on days 0 and 14, respectively. The 95% confidence intervals were calculated following Coles et al. ([26]).

P-gp transport = system: P-gp transport; design: method as in PMID 25865432; details: cited from earlier work

## CC[C@H](C)[C@H]1O[C@]2(CC[C@@H]1C)C[C@@H]1C[C@@H](C/C=C(\C)[C@@H](O[C@H]3C[C@H](OC)[C@@H](O[C@H]4C[C@H](OC)[C@@H](O)[C@H](C)O4)[C@H](C)O3)[C@@H](C)/C=C/C=C3\CO[C@@H]4[C@H](O)C(C)=C[C@@H](C(=O)O1)[C@]34O)O2 [IVM, ivermectin]
Bovine ileal explants [1]
  Effect on ABM accumulation in intestinal explants: significantly increased the accumulation of ABM in the intestinal explants at all incubation times
P-gp
  IC50: 2.5 µM
Sheep intestine
  Increase of Rho123 absorption in the presence of the inhibitor: 69%

## C=C(C)C1CC=C(C)C(=O)C1 (centres unmarked) [R-CNE, 5-isopropenyl-2-methyl-2-cyclohexenone]
Bovine ileal explants [2]; 3.33 mM R-CNE, 15, 30, 45, 60 min
  Effect on Rho123 concentrations in the intestinal explants: significantly increased Rho123 concentrations in the intestinal explants at all incubation times
Bovine ileal explants [2]; 60 min of incubation, 3.33 mM R-CNE, 0.5 μM Rho123
  Rho123 concentration in intestinal explants, % higher than Rho123 incubated alone: 67 ± 21%
Bovine ileal explants [1]
  Effect on ABM accumulation in intestinal explants: increased the intestinal concentration of the synthetic anthelmintic ABM at 15 and 30 min of incubation
Bovine ileal explants [1]; 30 min of incubation, 3.33 mM R-CNE
  Intestinal concentration of ABM, % higher than control (ABM alone): 28.1 ± 35.7%
[3]
  Cmax: 1790 ± 598 ng/mL
[4]
  Undesirable effects after oral administration: no undesirable effects were observed
[5]
  50% lethal concentration: 85 µg/mL
[6]
  Concentrations necessary to obtain an efficacy >90%: 370 µg/mL

## COC(=O)c1ccccc1-c1c2ccc(=N)cc-2oc2cc(N)ccc12 [Rho123, Rhodamine 123]
Bovine ileal explants [2]; male, Aberdeen Angus/Hereford crossbreed, cattle, 0.5 µM
  Accumulation rate of Rho123: 0.69 ± 0.19 ρg Rho/min/mg tissue

## abamectin [ABM]
[7]
  AUC0−168h of ABM: 815.67 ± 303.1
  Cmax of ABM: 16.20 ± 10.2^a μg/mL
  Tmax of ABM: 10.75 ± 9.6^a h
  T½ el (elimination half-life) of ABM: 28.04 ± 8.1^a h
[8]; 14 days after oral administration, mean ± SD
  Mean epg counts Day 14: 45 ± 121 epg
[8]; FECRT criteria
  Classification of drug efficacy according to Coles et al.: suspected of resistance
[8]; before treatment, mean ± SD
  Mean epg counts Day 0: 2,193 ± 858 epg
[8]; day 14, 95% confidence limits
  FECR (LCL-UCL): 94.9 (65.0-99.0) %
[8]; day 14, third-stage larvae
  Proportion of Haemonchus spp. in coprocultures after treatment: 88%
  Proportion of Teladorsagia spp. in coprocultures after treatment: 12%
P-gp transport
  Concentrations necessary to inhibit P-gp transport, fold lower than to inhibit MRPs-mediated transport: 3 fold
